Paper PMC5078989, “Targeted inhibition of the COP9 signalosome for treatment of cancer” (Nature Communications, 2016)

Tested on: panel of cancer cell lines
Assay: Cell viability (CellTiter-Glo) dose-response across cancer cell line panel;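 also: after 72 h compound incubation with CellTiter-Glo ATP readout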
Format: cell-based, human
Conditions: Homo sapiens
From the text: Next, we explored the effect of CSN5 inhibition on the viability of cancer cells. To obtain a comprehensive picture, we generated dose–response curves with a CSN5 inhibitor across more than 500 cancer cell lines in a previously described standardized setting[47] (Supplementary Data 1).
A standardized CellTiter-Glo Assay (Promega #G7570) based on the quantification of ATP was applied according to the manufacturer's protocol to measure the amount of viable cells in culture. In brief, cells were seeded into 384-well plates at optimal density for each cell line. After 4 h, compounds were added at different concentrations in growth medium and incubated for another 72 h in a humidifying chamber at 37 °C and 5% CO2. […] EC50 values were calculated from the plot of percentage of inhibition versus inhibitor concentration using the nonlinear regression analysis software Origin 7.5SR6 (OriginLab Corp.).

## COCc1ccccc1NCc1ccc([C@@H]2[C@H](O)CCCc3cncn32)c(-c2ccccc2Cl)c1 [CSN5i-2e, (5R,6R)-5-(2′-chloro-5-(((2-(methoxymethyl)phenyl)amino)methyl)-[1,1′-biphenyl]-2-yl)-6,7,8,9-tetrahydro-5H-imidazo[1,5-a]azepin-6-ol]
HCC-1833 cells
  EC50: 10.6 µM
HCT-15, HCT-15 cells
  EC50: 6.96 µM
HD-MY-Z cells
  EC50: 3.49 µM
HEC-50B, HEC-50B cells
  EC50: 13 µM
HEC-108 cells
  EC50: 14.7 µM
HEC-151 cells
  EC50: 11.1 µM
HEC-265 cells
  EC50: 14.2 µM
HEL 92.1.7, HEL 92.1.7 cells
  EC50: 7.27 µM
HEL, HEL cells
  EC50: 6.98 µM
HEY A8, Hey-A8 cells
  EC50: 12.9 µM
HL-60, HL-60 cells
  EC50: 15.7 µM
HLC-1 cells
  EC50: 11.5 µM
HLE, HLE cells
  EC50: 15.5 µM
HLF, HLF cells
  EC50: > 30 µM
HMC-1-8 cells
  EC50: 15.3 µM
HPBALL, HPB-ALL cells
  EC50: 14.1 µM
HRT-18, HRT-18 cells
  EC50: 9.14 µM
HSC-2, HSC-2 cells
  EC50: 23.9 µM
HSC-3, HSC-3 cells
  EC50: 12.7 µM
HSC-4, HSC-4 cells
  EC50: 10 µM
HT-29, HT-29 cells
  EC50: 12.4 µM
Hep 3B2.1-7 cells
  EC50: 11.1 µM
Hep3B, Hep3B cells
  EC50: 14.2 µM
Hs 294T, Hs 294T cells
  EC50: 11.7 µM
Hs766T, Hs 766T cells
  EC50: 24.2 µM
Hs 852.T cells
  EC50: 15.4 µM
Hs 936.T cells
  EC50: 17.2 µM
Hs 944.T cells
  EC50: 15.3 µM
HuG1-N cells
  EC50: 10.6 µM
HuP-T3, HUP-T3 cells
  EC50: 23.8 µM
HuP-T4, HUP-T4 cells
  EC50: 11 µM
Huh-7, HuH-7 cells
  EC50: 9.02 µM
IGR-37, IGR-37 cells
  EC50: 17.6 µM
IGR-39, IGR-39 cells
  EC50: 10.6 µM
IGROV-1, IGROV1 cells
  EC50: 12.3 µM
IPC-298, IPC-298 cells
  EC50: 10.3 µM
Ishikawa, Ishikawa cells
  EC50: 9.64 µM
J82, J82 cells
  EC50: > 30 µM
JHH7, JHH-7 cells
  EC50: 16.4 µM
JHH-4, JHH-4 cells
  EC50: 16.2 µM
JHOM-1 cells
  EC50: 8.92 µM
JHOS-2 cells
  EC50: > 30 µM
JHUEM-2 cells
  EC50: 15.3 µM
JIMT-1, JIMT-1 cells
  EC50: 13.1 µM
JVM-2, JVM-2 cells
  EC50: 13 µM
K029AX cells
  EC50: 17 µM
KARPAS-422, KARPAS-422 cells
  EC50: 12.5 µM
KATO III, KATO III cells
  EC50: 9.94 µM
KBM-7, KBM-7 cells
  EC50: 8.38 µM
KE-97, KE-97 cells
  EC50: 7.93 µM
KLE, KLE cells
  EC50: 12.6 µM
KMM-1, KMM-1 cells
  EC50: 10.6 µM
KMRC-1, KMRC-1 cells
  EC50: 17.7 µM
KMRC-20 cells
  EC50: 18.5 µM
KMS-11, KMS-11 cells
  EC50: 28.6 µM
KNS-62, KNS-62 cells
  EC50: 15.4 µM
KO52 cells
  EC50: 18.3 µM
KP-1N cells
  EC50: 15 µM
KS-1 cells
  EC50: 15.6 µM
KU-19-19, KU-19-19 cells
  EC50: 16 µM
KURAMOCHI cells
  EC50: 10.6 µM
KYSE-70, KYSE-70 cells
  EC50: 10.4 µM
KYSE-150, KYSE-150 cells
  EC50: 10.7 µM
KYSE-180, KYSE-180 cells
  EC50: 14.1 µM
KYSE-410, KYSE-410 cells
  EC50: 15 µM
Kasumi-3, Kasumi3 cells
  EC50: 13 µM
Kasumi-6 cells
  EC50: 6.45 µM
L3.3 cells
  EC50: 20.2 µM
L-363, L-363 cells
  EC50: 9.54 µM
L-428, L-428 cells
  EC50: 11.8 µM
LC-1F cells
  EC50: 16.3 µM
LCLC-103H, LCLC-103H cells
  EC50: 8.84 µM
LIM1899 cells
  EC50: 10.3 µM
LIM2099 cells
  EC50: 11.4 µM
LIM2405 cells
  EC50: 9.94 µM
LIM2550 cells
  EC50: 6.3 µM
LMSU cells
  EC50: 7.62 µM
LN-18, LN-18 cells
  EC50: 13 µM
LN-229, LN-229 cells
  EC50: 8.07 µM
LOU-NH91, LOU-NH91 cells
  EC50: 11.2 µM
LOX IMVI, LOX IMVI cells
  EC50: 9.19 µM
LP-1, LP-1 cells
  EC50: 11.9 µM
LS180, LS 180 cells
  EC50: 10.5 µM
LS-513, LS513 cells
  EC50: 8.14 µM
LUDLU-1, LUDLU-1 cells
  EC50: > 30 µM
Li-7, Li-7 cells
  EC50: 23.7 µM
Lu-65, LU65 cells
  EC50: 12.5 µM
Lu-99, LU99 cells
  EC50: 9.78 µM
M-07e, M-07e cells
  EC50: 16 µM
MCAS cells
  EC50: 12.5 µM
MCC14/2 cells
  EC50: 9.96 µM
MDA-MB-157, MDA-MB-157 cells
  EC50: 14.7 µM
MDA-MB-175-VII, MDA-MB-175-VII cells
  EC50: 19.8 µM
MDA-MB-231, MDA-MB-231 cells
  EC50: 15.3 µM
MDA-MB-415, MDA-MB-415 cells
  EC50: 13.4 µM
MDA-MB-435S, MDA-MB-435S cells
  EC50: 12 µM
MDA-MB-436, MDA-MB-436 cells
  EC50: 10.1 µM
MDA-MB-453, MDA-MB-453 cells
  EC50: 6.48 µM
MDA-MB-468, MDA-MB-468 cells
  EC50: 10.7 µM
MDST8, MDST8 cells
  EC50: 11.2 µM
ME-180, ME180 cells
  EC50: 11.9 µM
MEL-HO cells
  EC50: 10.9 µM
MEL-JUSO, MEL-JUSO cells
  EC50: 18.1 µM
MES-SA, MES-SA cells
  EC50: 12.5 µM
MFE-280, MFE-280 cells
  EC50: 10.8 µM
MFE-296, MFE-296 cells
  EC50: 10.5 µM
MFM-223, MFM223 cells
  EC50: 17.2 µM
MINO, Mino cells
  EC50: 7.97 µM
MKN-1, MKN1 cells
  EC50: 9.59 µM
MKN-45, MKN-45 cells
  EC50: 26.8 µM
ML-2, ML-2 cells
  EC50: 6.14 µM
MM127 cells
  EC50: 6.45 µM
MM138 cells
  EC50: 10.4 µM
MM253 cells
  EC50: 26.5 µM
MM370 cells
  EC50: 23 µM
MM383 cells
  EC50: 11.2 µM
MM386 cells
  EC50: 25.5 µM
MM415 cells
  EC50: 13.3 µM
MM426 cells
  EC50: 24.4 µM
MM466 cells
  EC50: 24.5 µM
MM473, MM473 cells
  EC50: 10.4 µM
MM485 cells
  EC50: 11.2 µM
MM537 cells
  EC50: 14 µM
MM576 cells
  EC50: 15.8 µM
MM603 cells
  EC50: 9.82 µM
MOG-G-CCM cells
  EC50: 10.9 µM
MOLM-13, MOLM-13 cells
  EC50: 6.66 µM
MOLP-8, MOLP-8 cells
  EC50: 6.91 µM
MOLT-16, MOLT-16 cells
  EC50: 5.34 µM
